From PubChem BioAssay AID250 (DTP/NCI, 2004)
Where “and” joins values, the source holds several entries; their conditions need not be identical. Equal entries are not always repeated. Inconclusive results and toxic doses are left out.

Tested on: BDF1 mice, L1210 leukemia sc, survival T/C
Assay: NCI In Vivo Anticancer Drug Screen. Data for tumor model L1210 Leukemia (subcutaneous) in B6D2F1 (BDF1) mice
Conditions: endpoint: median survival time, higher = longer survival
Outline: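 Tumors were transplanted into mice, the animals were treated with compound, survival or tumor size was then measured, and treated values were divided by vehicle-control values.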

**Q.** What does the source list for `O=C(Nc1ccc(C2=NCCN2)cc1)c1ccc(C(=O)Nc2ccc(C3=NCCN3)cc2)c(Cl)c1`?
**A.** T/C (dose: 0.19 mg/kg/injection, schedule: Q01DX Z (iv), vehicle: water): 100 % of control; T/C (dose: 0.38 mg/kg/injection, schedule: Q01DX Z (iv), vehicle: water): 100 % of control; T/C (dose: 0.75 mg/kg/injection, schedule: Q01DX Z (iv), vehicle: water): 90 % of control; T/C (dose: 1.3 mg/kg/injection, schedule: Q01DX Z (ip), vehicle: water): 95 % of control; T/C (dose: 1.5 mg/kg/injection, schedule: Q01DX Z (iv), vehicle: water): 95 % of control; T/C (dose: 2.16 mg/kg/injection, schedule: Q01DX Z (ip), vehicle: water): 100 % of control; T/C (dose: 2.16 mg/kg/injection, schedule: Q01DX Z (sc), vehicle: water): 95 % of control; T/C (dose: 2.5 mg/kg/injection, schedule: Q01DX Z (sc), vehicle: methylcellulose (MC)): 111 % of control; T/C (dose: 3.0 mg/kg/injection, schedule: Q01DX Z (ip), vehicle: water): 100 % of control; T/C (dose: 3.0 mg/kg/injection, schedule: Q01DX Z (iv), vehicle: water): 100 % of control; T/C (dose: 3.0 mg/kg/injection, schedule: Q01DX Z (sc), vehicle: saline): 100 % of control and 104 % of control; T/C (dose: 3.6 mg/kg/injection, schedule: Q01DX Z (ip), vehicle: water): 90 % of control; T/C (dose: 3.6 mg/kg/injection, schedule: Q01DX Z (sc), vehicle: water): 100 % of control; T/C (dose: 5.0 mg/kg/injection, schedule: Q01DX Z (ip), vehicle: water): 100 % of control; T/C (dose: 5.0 mg/kg/injection, schedule: Q01DX Z (sc), vehicle: methylcellulose (MC)): 116 % of control; T/C (dose: 5.0 mg/kg/injection, schedule: Q01DX Z (sc), vehicle: saline): 100 % of control; T/C (dose: 5.0 mg/kg/injection, schedule: Q01DX Z (sc), vehicle: water): 110 % of control and 111 % of control; T/C (dose: 6.0 mg/kg/injection, schedule: Q01DX Z (ip), vehicle: water): 95 % of control; T/C (dose: 6.0 mg/kg/injection, schedule: Q01DX Z (iv), vehicle: water): 100 % of control; T/C (dose: 6.0 mg/kg/injection, schedule: Q01DX Z (sc), vehicle: water): 100 % of control; T/C (dose: 8.4 mg/kg/injection, schedule: Q01DX Z (ip), vehicle: water): 160 % of control; T/C (dose: 8.4 mg/kg/injection, schedule: Q01DX Z (sc), vehicle: saline): 109 % of control and 110 % of control and 122 % of control; T/C (dose: 8.4 mg/kg/injection, schedule: Q01DX Z (sc), vehicle: water): 170 % of control; T/C (dose: 10.0 mg/kg/injection, schedule: Q01DX Z (ip), vehicle: water): 105 % of control; T/C (dose: 10.0 mg/kg/injection, schedule: Q01DX Z (sc), vehicle: methylcellulose (MC)): 244 % of control; T/C (dose: 10.0 mg/kg/injection, schedule: Q01DX Z (sc), vehicle: water): 120 % of control and 233 % of control; T/C (dose: 12.0 mg/kg/injection, schedule: Q01DX Z (sc), vehicle: water): 181 % of control; T/C (dose: 14.0 mg/kg/injection, schedule: Q01DX Z (ip), vehicle: water): 160 % of control; T/C (dose: 14.0 mg/kg/injection, schedule: Q01DX Z (sc), vehicle: saline): 210 % of control; T/C (dose: 14.0 mg/kg/injection, schedule: Q01DX Z (sc), vehicle: water): 190 % of control and 170 % of control; T/C (dose: 14.0 mg/kg/injection, schedule: Q02DX Z (sc), vehicle: saline): 100 % of control; T/C (dose: 17.0 mg/kg/injection, schedule: Q01DX001 (ip), vehicle: water): 100 % of control; T/C (dose: 17.0 mg/kg/injection, schedule: Q01DX Z (sc), vehicle: water): 210 % of control; T/C (dose: 20.0 mg/kg/injection, schedule: Q01DX Z (sc), vehicle: methylcellulose (MC)): 244 % of control; T/C (dose: 20.0 mg/kg/injection, schedule: Q01DX Z (sc), vehicle: water): 244 % of control; T/C (dose: 23.0 mg/kg/injection, schedule: Q01DX Z (ip), vehicle: water): 180 % of control; T/C (dose: 23.0 mg/kg/injection, schedule: Q01DX Z (sc), vehicle: other): 210 % of control; T/C (dose: 23.0 mg/kg/injection, schedule: Q01DX Z (sc), vehicle: saline): 195 % of control and 200 % of control; T/C (dose: 23.0 mg/kg/injection, schedule: Q01DX Z (sc), vehicle: water): 210 % of control and 240 % of control and 170 % of control; T/C (dose: 23.0 mg/kg/injection, schedule: Q02DX Z (sc), vehicle: saline): 110 % of control; T/C (dose: 23.0 mg/kg/injection, schedule: Q## X Z (sc), vehicle: saline): 110 % of control; T/C (dose: 24.0 mg/kg/injection, schedule: Q01DX Z (sc), vehicle: water): 200 % of control; T/C (dose: 28.0 mg/kg/injection, schedule: Q01DX001 (ip), vehicle: water): 100 % of control; T/C (dose: 28.0 mg/kg/injection, schedule: Q01DX Z (ip), vehicle: water): 205 % of control; T/C (dose: 28.0 mg/kg/injection, schedule: Q01DX Z (sc), vehicle: water): 190 % of control; T/C (dose: 39.0 mg/kg/injection, schedule: Q01DX Z (sc), vehicle: other): 200 % of control; T/C (dose: 39.0 mg/kg/injection, schedule: Q01DX Z (sc), vehicle: saline): 180 % of control and 185 % of control and 195 % of control; T/C (dose: 39.0 mg/kg/injection, schedule: Q01DX Z (sc), vehicle: water): 210 % of control and 195 % of control; T/C (dose: 39.0 mg/kg/injection, schedule: Q## X Z (sc), vehicle: saline): 170 % of control; T/C (dose: 40.0 mg/kg/injection, schedule: Q01DX001 (sc), vehicle: methylcellulose (MC)): 111 % of control; T/C (dose: 40.0 mg/kg/injection, schedule: Q01DX Z (sc), vehicle: methylcellulose (MC)): 177 % of control; T/C (dose: 40.0 mg/kg/injection, schedule: Q01DX Z (sc), vehicle: water): 227 % of control; T/C (dose: 47.0 mg/kg/injection, schedule: Q01DX001 (ip), vehicle: water): 100 % of control; T/C (dose: 47.0 mg/kg/injection, schedule: Q01DX Z (sc), vehicle: water): 200 % of control; T/C (dose: 48.0 mg/kg/injection, schedule: Q01DX Z (sc), vehicle: water): 181 % of control; T/C (dose: 65.0 mg/kg/injection, schedule: Q01DX Z (sc), vehicle: other): 180 % of control; T/C (dose: 65.0 mg/kg/injection, schedule: Q01DX Z (sc), vehicle: saline): 155 % of control and 163 % of control and 166 % of control; T/C (dose: 65.0 mg/kg/injection, schedule: Q01DX Z (sc), vehicle: water): 155 % of control and 185 % of control and 170 % of control; T/C (dose: 65.0 mg/kg/injection, schedule: Q## X Z (sc), vehicle: saline): 200 % of control; T/C (dose: 78.0 mg/kg/injection, schedule: Q01DX001 (ip), vehicle: water): 100 % of control; T/C (dose: 78.0 mg/kg/injection, schedule: Q01DX001 (sc), vehicle: water): 100 % of control; T/C (dose: 78.0 mg/kg/injection, schedule: Q01DX Z (sc), vehicle: water): 170 % of control; T/C (dose: 80.0 mg/kg/injection, schedule: Q01DX001 (sc), vehicle: methylcellulose (MC)): 116 % of control; T/C (dose: 80.0 mg/kg/injection, schedule: Q01DX Z (sc), vehicle: methylcellulose (MC)): 111 % of control; T/C (dose: 80.0 mg/kg/injection, schedule: Q01DX Z (sc), vehicle: water): 155 % of control; T/C (dose: 108.0 mg/kg/injection, schedule: Q01DX001 (sc), vehicle: saline): 170 % of control; T/C (dose: 108.0 mg/kg/injection, schedule: Q01DX Z (sc), vehicle: saline): 154 % of control; T/C (dose: 108.0 mg/kg/injection, schedule: Q02DX Z (sc), vehicle: saline): 200 % of control; T/C (dose: 130.0 mg/kg/injection, schedule: Q01DX001 (ip), vehicle: water): 105 % of control; T/C (dose: 130.0 mg/kg/injection, schedule: Q01DX001 (sc), vehicle: water): 110 % of control; T/C (dose: 160.0 mg/kg/injection, schedule: Q01DX001 (sc), vehicle: methylcellulose (MC)): 166 % of control; T/C (dose: 160.0 mg/kg/injection, schedule: Q01DX001 (sc), vehicle: water): 161 % of control; T/C (dose: 180.0 mg/kg/injection, schedule: Q01DX001 (sc), vehicle: saline): 190 % of control; T/C (dose: 180.0 mg/kg/injection, schedule: Q01DX Z (sc), vehicle: other): 115 % of control; T/C (dose: 180.0 mg/kg/injection, schedule: Q02DX Z (sc), vehicle: saline): 180 % of control; T/C (dose: 300.0 mg/kg/injection, schedule: Q01DX Z (sc), vehicle: other): 90 % of control; T/C (dose: 300.0 mg/kg/injection, schedule: Q01DX Z (sc), vehicle: water): 105 % of control; T/C (dose: 300.0 mg/kg/injection, schedule: Q02DX Z (sc), vehicle: saline): 170 % of control; T/C (dose: 300.0 mg/kg/injection, schedule: Q## X Z (sc), vehicle: saline): 205 % of control; T/C (dose: 320.0 mg/kg/injection, schedule: Q01DX001 (sc), vehicle: water): 222 % of control; T/C (dose: 360.0 mg/kg/injection, schedule: Q01DX001 (sc), vehicle: water): 155 % of control; T/C (dose: 500.0 mg/kg/injection, schedule: Q## X Z (sc), vehicle: saline): 200 % of control; T/C (dose: 600.0 mg/kg/injection, schedule: Q01DX001 (sc), vehicle: water): 150 % of control
